Laboratory results taken from US20130281420A1, “Ophthalmic Formulations of Squalamine” (Ohr Pharmaceutical, Inc., priority 2010, published 2013).
Where a name gives a salt, the structure may show the parent alone. Read-outs that look alike come from different tables or passages of the source.

Columns and labels:
AMD = details: cited from earlier work
[1] = Ocular biodistribution study following ocular administration; type: in vivo, Dutch-Belted rabbits; details: formulation G, 0.08 mg/eye once; for concentration at 15 min / concentration at 30 min / concentration at 3 h: male, Dutch-Belted, rabbit, posterior sclera and choroid, other: ocular administration, 0.08 mg/eye
Protocol: The objective of this study was to determine the ocular biodistribution of squalamine lactate formulation G (see composition above) when given once by ocular administration to male Dutch-Belted rabbits.
The study design was as follows:
Body weight measurements were taken for randomization/dose calculation purposes. […] Following dose administration, blood samples were collected at specified time points and plasma was prepared. After blood sample collection, the animals were euthanized and a necropsy was performed to collect the following ocular tissues: aqueous humor, vitreous humor, sensory retina and choroid/sclera.

[2] = test system: human vascular endothelial cells (HUVEC); experiment: Inhibition of VEGF induced tube formation by HUVEC; type: cell-based; details: 50 nM (tested at 50, 100, 200 nM), 24 hrs, Matrigel with VEGF
Protocol: Squalamine lactate was mixed in solution at 50, 100 or 200 nM concentration with a suspension of human vascular endothelial cells (HUVEC). The suspension was then immediately plated on Matrigel which contained multiple growth factors including vascular endothelial cell growth factor (VEGF). The plates were incubated at 37° C. in an atmosphere of […] for 24 hrs and then the plates were photographed.

[3] = any animals (15 min, 30 min, 3 hrs)
[4] = mean of eyes, read-out: Squalamine in posterior sclera and choroid, Mean

In the case of CC(C)[C@@H](CC[C@@H](C)[C@H]1CC[C@H]2[C@@H]3[C@H](O)C[C@H]4C[C@@H](NCCCNCCCCN)CC[C@]4(C)[C@H]3CC[C@]12C)OS(=O)(=O)O [Squalamine, ([6-[(3S,5R,7R,10S,13R,145)-3-[3-(4-aminobutylamino)propylamino]-7-hydroxy-10,13-dimethyl-2,3,4,5,6,7,8,9,11,12,14,15,16,17-tetradecahydro-1H-cyclopenta[a]phenanthren-17-yl]-2-methylheptan-3-yl]hydrogen sulfate)], the visual acuity (AMD; IV infusion, after the first four to five weeks of administration) is given as “good gains in visual acuity”, the plasma half-life (AMD; human subjects, 40 mg dose, intravenous infusion) is given as “short” and the “adverse reactions of intravenous dosing” value (AMD; intravenous dosing, human) is given as “local infusion-site reactions”. The “Squalamine in posterior sclera and choroid” value ([1]; 30 min, An#105 left eye) was “BQL”, the “Level of squalamine in aqueous humor” value [1, 3] was “No quantifiable levels” and the “Level of squalamine in vitreous humor” value [1, 3] was “No quantifiable levels”. It also gave a concentration at 15 min ([1]; An#101 left eye, read-out: Squalamine in posterior sclera and choroid) of 101 ng/g, a concentration at 15 min ([1]; An#101 right eye, read-out: Squalamine in posterior sclera and choroid) of 26.6 ng/g and a concentration at 15 min ([1]; An#102 left eye, read-out: Squalamine in posterior sclera and choroid) of 44.2 ng/g. The concentration at 15 min ([1]; An#102 right eye, read-out: Squalamine in posterior sclera and choroid) was 145 ng/g, the concentration at 15 min ([1]; An#103 left eye, read-out: Squalamine in posterior sclera and choroid) was 195 ng/g and the concentration at 15 min ([1]; An#103 right eye, read-out: Squalamine in posterior sclera and choroid) was 31.7 ng/g. The concentration at 15 min [1, 4] was 90.6 ng/g, the concentration at 30 min ([1]; 30 min, An#104 left eye, read-out: Squalamine in posterior sclera and choroid) was 54.4 ng/g and the concentration at 30 min ([1]; 30 min, An#104 right eye, read-out: Squalamine in posterior sclera and choroid) was 121 ng/g. The concentration at 30 min ([1]; 30 min, An#105 right eye, read-out: Squalamine in posterior sclera and choroid) was 78.9 ng/g, the concentration at 30 min ([1]; 30 min, An#106 left eye, read-out: Squalamine in posterior sclera and choroid) was 96.7 ng/g and the concentration at 30 min ([1]; 30 min, An#106 right eye, read-out: Squalamine in posterior sclera and choroid) was 94.1 ng/g. It also gave a concentration at 30 min ([1]; 30 min, mean of eyes, read-out: Squalamine in posterior sclera and choroid, Mean) of 89 ng/g, a concentration at 3 h ([1]; An#107 left eye, read-out: Squalamine in posterior sclera and choroid) of 23.9 ng/g and a concentration at 3 h ([1]; An#107 right eye, read-out: Squalamine in posterior sclera and choroid) of 149 ng/g. The concentration at 3 h ([1]; An#108 left eye, read-out: Squalamine in posterior sclera and choroid) was 26 ng/g, the concentration at 3 h ([1]; An#108 right eye, read-out: Squalamine in posterior sclera and choroid) was 34.6 ng/g and the concentration at 3 h ([1]; An#109 left eye, read-out: Squalamine in posterior sclera and choroid) was 71.8 ng/g. For the same compound, the concentration at 3 h ([1]; An#109 right eye, read-out: Squalamine in posterior sclera and choroid) was 51.1 ng/g, the concentration at 3 h [1, 4] was 59.4 ng/g and the “HUVEC tube formation on Matrigel” value [2] was “disrupts tube formation”.
